Laboratory results reported in patent EP0831877B1, “METABOLIC EFFECTS OF CERTAIN GLUTATHIONE ANALOGS” (TELIK, INC., priority 1995, dated 1996).
“And” between values parts separate entries of the source, which are not always exact repeats. Equal values may be shown once. Read-outs that look alike come from different tables or passages of the source.

What was measured:
[1] = tested on: normal human bone marrow erythroid (BFU-E) progenitor cells; test: colony formation, human bone marrow BFU-E; type: cell-based
Procedure: (§1) The effects are dose-dependent, usually in the range of 1.0 to 10.0 µM, and in most cases for cells stimulated by GM-CSF, G-CSF, M-CSF, Flt3/Flk-2 and Steel factor (stem cell factor/c-kit ligand). Of particular interest was the finding that TER199 enhances colony formation stimulated by combinations of cytokines. Additionally, the enhancing effect is more pronounced in human than in murine bone marrow.

[2] = tested on: SKOV-3 an ovarian carcinoma; test: standard clonogenic assay, potentiation of drug toxicity, SKOV-3; type: cell-based; conditions: test dose not given
Procedure: ; SKOV-3 an ovarian carcinoma, and VLB, a vinblastine-resistant variant of SKOV-3. Four chemotherapeutic drugs, chlorambucil, adriamycin, mitomycin C and doxorubicin were used as the toxic agents. In these assays, the cells were seeded at 300 cells/well in 2 ml of medium in 6-well plates in the presence of the compounds used in the invention as the diethyl esters. […]. After incubation for 1-2 hours to permit cells to attach, varying doses of the chemotherapeutic agents were added. At least three replicate wells were plated for each test condition and the plates were incubated for two weeks. Colonies were fixed in 95% ethanol and stained with crystal violet for colony counting. IC50 values were determined for the chemotherapeutic agent in the presence or absence of the compound used in the invention and dose modification factors were calculated by dividing the IC50 value of drug without the compound by the IC50 value of the drug with the compound.

bone marrow GM-CFU [3] = test: carboplatin-induced GM-CFU suppression in mice; type: in vivo; conditions: TER199 120mg/kg, i.p., carboplatin 90 mg/kg
Procedure: Bone marrows were harvested 24 hours after administration of the second drug.

bone marrow GM-CFU [4] = test: 5-fluorouracil-induced GM-CFU suppression in mice; conditions: for GM-CFU: harvest 48 hours after 5-FU
Procedure: The control group was not treated with either drug. Bone marrows were harvested and GM-CFUs were determined 24 hours after the final injection.
Values are the mean ± SE of three mice per point.

[5] = tested on: HT-29 (human colon adenocarcinoma) cells; test: modified clonogenic assay, potentiation of chlorambucil cytotoxicity; type: cell-based; conditions: chlorambucil, mean ±S.D. of 2-3 experiments; for DMF (dose modification factor), Diethyl ester: HT-29, dose tested 12.5 µM
Procedure: HT-29 (human colon adenocarcinoma) cells were obtained from Dr. Roberto Ceriani (Cancer Research Fund of Contra Costa County, Walnut Creek, CA) and were used in log phase of growth unless otherwise specified. Chlorambucil (CMB) was obtained from Sigma (St. Louis, MO) and was dissolved in 100% ethanol. All GST inhibitors were dissolved in ethanol, DMSO, or water just prior to use. The same amount of solvent added to culture medium served as the vehicle control.
In a modified clonogenic assay for cytotoxicity, cells were suspended at 2 x 10^5 cells/ml in serum-free medium in the presence of vehicle or inhibitor. […] Cells were incubated for 2 hours, then varying doses of CMB were added. At the end of a second 2-hour incubation, cells were diluted to 7.5-10 x 10^3/ml in serum-containing medium and plated in quadruplicate at 200 µl/well in Microtest III microtiter plates.
Plates were incubated for 6 days and assayed by a modified methylene blue method. Briefly, cells were fixed with 1.25% glutaraldehyde in PBS then stained with 0.05% methylene blue in distilled water. Plates were washed several times in distilled water to remove unretained dye and retained dye was resolubilized in 0.03 N HCl. Plates were read at 650 nm in a Molecular Devices Vmax plate reader (Molecular Devices, Redwood City, CA). […] A dose modification factor (DMF), a measure of potentiation of cytotoxicity, was calculated for each inhibitor by dividing the IC50 value of CMB without inhibitor treatment by the IC50 value for CMB with inhibitor treatment.

[6] = tested on: normal BDF1 mouse bone marrow erythroid (BFU-E) progenitor cells; test: colony formation, mouse bone marrow BFU-E; type: cell-based
Procedure: as §1

HT-29 cells = test: Cytosensor Microphysiometer acidification rates; type: cell-based, human; conditions: 4 hours pretreatment, TER199 20 µM, ethacrynic acid 50 µM
Procedure: The metabolic effects related to toxicity of the compounds of the invention on HT-29 cells, were tested using a Cytosensor Microphysiometer made by Molecular Devices, Inc., Menlo Park, CA and described in McConnell, H.M. et al. Science (1992) 257:1906-1912 and by Wada, H.G. et al. AATEX (1992) 1:154-164. Changes in pH of the culture medium are measured as a function of cellular metabolism. Acidification rates of the small volume of liquid flowing over the cells correlate with the number of live cells in the reaction chamber; a reduction of acidification rate reflects reduced numbers of surviving cells. […] The medium was then replaced with serum-free low buffer capacity medium and Microphysiometer analysis was initiated.

interleukin-1 (IL-1) = test: stimulation of cytokine production in bone marrow stromal cell cultures; type: cell-based, human; conditions: 100µM TER199 for one hour
Procedure: Human stromal cell cultures were established from freshly obtained human bone marrow as described by East, C.J. et al., Blood 5:1172 (1992). […] IL-1 levels were more than twice those of controls at both 24 and 48 hour time points.

bone marrow GM-CFU [7] = conditions: TER199 90 mg/kg i.p. 1 hour prior to melphalan 10 mg/kg i.p.
peripheral blood cells = test: peripheral blood response to 5-FU with oral TER199 in mice; type: in vivo; conditions: 150 mg/kg 5-FU IP, 24 hours later oral 150 mg/kg TER199, versus 5-FU alone
Procedure: The mice were bled through the retroorbital plexus and the blood samples were analyzed for changes in blood counts.

[8] = in vitro half-life / metabolism in mouse blood; type: in vitro ADME
[9] = EPO + 50 ng/ml SLF, TER199 0.1 µM
[10] = EPO + 50 ng/ml SLF, TER199 1.0 µM
[11] = EPO + 50 ng/ml SLF, TER199 10 µM

SMILES: CCOC(=O)[C@@H](N)CCC(=O)N[C@@H](CSCc1ccccc1)C(=O)N[C@@H](C(=O)OCC)c1ccccc1 [TER199, γE ethyl ester-C(Bz)-R-(-)-ϕG ethyl ester]
- Colony number ([1]; EPO 1 U/ml, TER199 0.1 µM): 35±3 and 38±3
- Colony number ([1]; EPO 1 U/ml, TER199 1.0 µM): 60±2 and 58±1
- Colony number ([1]; EPO 1 U/ml, TER199 10 µM): 57±4 and 59±2
- Colony number [1, 9]: 92±4 and 80±5
- % change from control [1, 10]: 22% and 35%
- Colony number [1, 10]: 107±7 and 80±3
- % change from control [1, 11]: 24% and 29%
- Colony number [1, 11]: 109±2 and 85±3
- DMF for Adriamycin [2]: 1.14
- DMF for Chlorambucil [2]: 1.24
- DMF for Doxorubicin [2]: 1.14
- carboplatin-induced GM-CFU suppression (Figure 12, panel A) (bone marrow GM-CFU [3]): reduces carboplatin-induced GM-CFU suppression
- GM-CFU counts per femur (bone marrow GM-CFU [4]; 60 mg/kg TER199 IP 24 hours after 75 mg/kg 5-FU IP): greater than control values
- number of GM-CFUs per femur compared with fluorouracil alone (bone marrow GM-CFU [4]; 60 mg/kg TER199 IP simultaneously with 75 mg/kg 5-FU IP): fourfold increase
- GM-CFU (bone marrow GM-CFU [4]; TER199 150 mg/kg p.o. 24 hours after 5-FU 75 mg/kg i.p.): 90 % of control
- GM-CFU (bone marrow GM-CFU [4]; TER199 150 mg/kg p.o. 24 hours after 5-FU 150 mg/kg i.p.): 71 % of control
- GM-CFU by day 4 after 5-FU administration (Figure 9b) (bone marrow GM-CFU [4]; TER199 IP 24 hours after 5-FU): about twice that of control
- effect on GM-CFU (Figure 9c) (bone marrow GM-CFU [4]; TER199 i.p. 24 hours prior to 5-FU): essentially no effect
- DMF (dose modification factor), Diethyl ester [5]: 1.65
- DMF (dose modification factor), Diethyl ester ([5]; listed as γE-C(Bz)-ϕG diethyl ester): 1.65 ± 0.04
- DMF of DEE ([5]; diethyl ester): 1.651
- % change from control ([6]; EPO 1 U/ml, TER199 0.1 µM): 0%
- Colony number ([6]; EPO 1 U/ml, TER199 0.1 µM): 2±1 and 4±1
- Colony number ([6]; EPO 1 U/ml, TER199 1.0 µM): 2±1 and 3±1
- % change from control ([6]; EPO 1 U/ml, TER199 10 µM): 0%
- Colony number ([6]; EPO 1 U/ml, TER199 10 µM): 2±1 and 4±1
- Colony number [6, 9]: 8±1 and 9±1
- Colony number [6, 10]: 8±1 and 9±1
- Colony number [6, 11]: 8±1 and 9±1
- effect on acidification rates, compound alone (Figure 2) (HT-29 cells; no chlorambucil): Neither γE-C(Bz)-ϕG diethylester (TER199) nor ethacrynic acid alone had any appreciable effect
- effect of pretreatment on acidification rates with chlorambucil (Figure 2) (HT-29 cells; then 100 µM chlorambucil): potentiated the effect of chlorambucil
- IL-1 concentration (interleukin-1 (IL-1); 24 Hours): 323 pg/mL
- IL-1 concentration (% control) (interleukin-1 (IL-1); 24 Hours): 283 % control
- IL-1 concentration (interleukin-1 (IL-1); 48 Hours): 245 pg/mL
- IL-1 concentration (% control) (interleukin-1 (IL-1); 48 Hours): 253 % control
- GM-CFU (bone marrow GM-CFU [7]): 8 % of control value
- lymphocytes (Figure 15c) (peripheral blood cells): no differences were found
- monocytes (Figure 15d) (peripheral blood cells): statistically significant difference only on day 9
- neutrophils (Figure 15b) (peripheral blood cells): statistically significant difference was obtained only on day 9
- total white cell counts (Figure 15a) (peripheral blood cells): essentially no significant difference
- half-life [8]: < 1 min
